The record followed here is patent US10125121B2, “FYN kinase inhibitors” (ROTTAPHARM BIOTECH S.R.L., priority 2015, dated 2018).

One may read the IC50 as the point on the concentration scale where inhibition reaches its midpoint. Broadly, the inhibition is the relative decrease from the control value, in per cent. One may read the bioavailability as dose-corrected exposure relative to a reference, in per cent. Low values mean little systemic uptake, high ones much systemic uptake.

Data set [1] addresses HCK (Homo sapiens, UniProt P08631). As to the kind of experiment: Kinase selectivity panel by Cerep.
In data set [2] the target is SRC (Homo sapiens, UniProt P12931). As to the kind of experiment: Kinase selectivity panel by Cerep.
SRC, sequence (P12931 whole entry): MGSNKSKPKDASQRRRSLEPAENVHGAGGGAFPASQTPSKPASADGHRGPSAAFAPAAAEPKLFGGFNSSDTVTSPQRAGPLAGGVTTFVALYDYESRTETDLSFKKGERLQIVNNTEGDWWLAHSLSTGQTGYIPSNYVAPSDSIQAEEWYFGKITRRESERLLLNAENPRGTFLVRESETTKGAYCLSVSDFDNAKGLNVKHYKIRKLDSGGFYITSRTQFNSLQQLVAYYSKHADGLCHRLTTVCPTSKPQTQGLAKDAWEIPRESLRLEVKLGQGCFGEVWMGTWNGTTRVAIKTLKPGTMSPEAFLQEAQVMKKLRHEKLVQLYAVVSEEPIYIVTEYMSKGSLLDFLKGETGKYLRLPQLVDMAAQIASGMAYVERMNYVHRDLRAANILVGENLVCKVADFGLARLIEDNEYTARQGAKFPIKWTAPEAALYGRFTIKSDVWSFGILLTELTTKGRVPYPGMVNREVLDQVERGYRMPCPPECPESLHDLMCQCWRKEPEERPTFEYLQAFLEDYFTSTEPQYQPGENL
Data set [3] addresses RET (Homo sapiens, UniProt P07949). As to the kind of experiment: Kinase selectivity panel by Cerep. The note with it: read-out: inhibition of RET.
Data set [4] addresses CDK2 (Homo sapiens, UniProt P24941). As to the kind of experiment: Kinase selectivity panel by Cerep. The note with it: read-out: inhibition of CDK2.
For data set [5], the target named is FYN (Homo sapiens, UniProt P06241). As to the kind of experiment: Kinase selectivity panel by Cerep.
FYN, sequence (P06241 whole entry): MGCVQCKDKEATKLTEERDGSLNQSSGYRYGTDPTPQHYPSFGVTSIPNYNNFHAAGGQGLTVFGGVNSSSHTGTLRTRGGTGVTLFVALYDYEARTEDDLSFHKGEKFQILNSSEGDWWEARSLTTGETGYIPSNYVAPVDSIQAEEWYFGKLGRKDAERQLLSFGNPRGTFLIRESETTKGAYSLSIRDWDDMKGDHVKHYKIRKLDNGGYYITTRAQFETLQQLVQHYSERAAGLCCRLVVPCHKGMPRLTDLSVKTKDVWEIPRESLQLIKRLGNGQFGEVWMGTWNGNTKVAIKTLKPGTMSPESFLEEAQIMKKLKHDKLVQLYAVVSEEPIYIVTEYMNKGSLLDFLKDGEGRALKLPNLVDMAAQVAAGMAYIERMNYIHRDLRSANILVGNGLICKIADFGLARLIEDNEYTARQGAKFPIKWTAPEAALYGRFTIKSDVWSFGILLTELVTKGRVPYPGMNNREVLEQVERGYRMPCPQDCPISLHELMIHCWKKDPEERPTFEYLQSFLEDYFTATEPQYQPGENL
Data set [6] can be described thus: Pharmacokinetics in rats. The data set is classed as in vivo, rat. The conditions noted are these: rat, in vivo, po, 1 mg/kg orally.
For data set [7], the system named is NF-kB activation in JB6 CI 41-5a (P+) cells. As to the kind of experiment: Gene reporter (GR) assay, NF-kB luciferase after TNFα stimulation. It is filed as cell-based, murine. The note with it: Mus musculus; 1 h pre-treatment, 2 ng/ml TNFα for 4 h; read-out: IC50(nM) GR Inhibition.
The target in data set [8] is BLK (Homo sapiens, UniProt P51451). As to the kind of experiment: Kinase selectivity panel by Cerep.
BLK, sequence (P51451 whole entry): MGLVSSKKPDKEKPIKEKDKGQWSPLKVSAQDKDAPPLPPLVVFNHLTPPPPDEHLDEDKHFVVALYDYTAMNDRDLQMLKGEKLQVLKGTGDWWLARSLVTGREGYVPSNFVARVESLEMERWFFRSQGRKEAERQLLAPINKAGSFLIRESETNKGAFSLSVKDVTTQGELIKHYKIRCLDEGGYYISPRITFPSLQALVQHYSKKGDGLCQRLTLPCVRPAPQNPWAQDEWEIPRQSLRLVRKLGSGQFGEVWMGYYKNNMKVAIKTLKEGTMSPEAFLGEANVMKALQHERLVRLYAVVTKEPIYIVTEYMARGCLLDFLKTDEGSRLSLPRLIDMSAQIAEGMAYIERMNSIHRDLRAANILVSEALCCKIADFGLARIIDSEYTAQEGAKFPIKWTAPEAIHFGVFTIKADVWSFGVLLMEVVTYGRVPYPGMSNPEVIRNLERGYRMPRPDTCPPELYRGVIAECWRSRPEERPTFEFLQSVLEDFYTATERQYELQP
Data set [9] relates to CFA induced hyperalgesia. As to the kind of experiment: CFA-induced inflammatory pain in rats (Randall-Selitto paw withdrawal threshold). It is filed as in vivo. The note with it: 3; rat, 24 h after administration. As to the method:
Male Wistar rats were injected into the right hind footpad with 300 μg of Mycobacterium tuberculosis in 100 μL of liquid paraffin (Complete Freund's Adjuvant; CFA). Seventy-two hours later, compounds 2 and 26 were administered subcutaneously and 24 h after the administration, the response to noxious mechanical stimulation was assessed by measuring paw withdrawal threshold (PWT) with an analgesimeter of the Randall-Selitto type. Animals were gently restrained, and steadily increasing pressure was applied to the dorsal surface of both the ipsi-lateral (CFA-treated) and the contra-lateral paw via a dome-shaped plastic tip.
100% protection means that the animal treated with the compound and CFA can tolerate the same stimulus (weight) as the control animal which has not received CFA treatment.

HCK, sequence (P08631 whole entry): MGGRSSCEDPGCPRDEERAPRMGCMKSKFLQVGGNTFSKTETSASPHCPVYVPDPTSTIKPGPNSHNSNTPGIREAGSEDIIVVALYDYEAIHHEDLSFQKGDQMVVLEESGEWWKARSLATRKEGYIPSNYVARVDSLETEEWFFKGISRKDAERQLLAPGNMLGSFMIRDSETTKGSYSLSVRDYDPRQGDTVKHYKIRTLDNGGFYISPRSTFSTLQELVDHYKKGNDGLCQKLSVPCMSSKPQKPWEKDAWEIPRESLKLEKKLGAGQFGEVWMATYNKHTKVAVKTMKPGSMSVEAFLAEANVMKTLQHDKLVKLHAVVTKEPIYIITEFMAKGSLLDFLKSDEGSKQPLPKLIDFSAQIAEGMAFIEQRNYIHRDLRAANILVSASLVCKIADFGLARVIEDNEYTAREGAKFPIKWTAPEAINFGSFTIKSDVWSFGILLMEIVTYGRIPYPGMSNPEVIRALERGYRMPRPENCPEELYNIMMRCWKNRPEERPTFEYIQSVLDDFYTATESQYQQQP
RET, sequence (P07949 29-1114): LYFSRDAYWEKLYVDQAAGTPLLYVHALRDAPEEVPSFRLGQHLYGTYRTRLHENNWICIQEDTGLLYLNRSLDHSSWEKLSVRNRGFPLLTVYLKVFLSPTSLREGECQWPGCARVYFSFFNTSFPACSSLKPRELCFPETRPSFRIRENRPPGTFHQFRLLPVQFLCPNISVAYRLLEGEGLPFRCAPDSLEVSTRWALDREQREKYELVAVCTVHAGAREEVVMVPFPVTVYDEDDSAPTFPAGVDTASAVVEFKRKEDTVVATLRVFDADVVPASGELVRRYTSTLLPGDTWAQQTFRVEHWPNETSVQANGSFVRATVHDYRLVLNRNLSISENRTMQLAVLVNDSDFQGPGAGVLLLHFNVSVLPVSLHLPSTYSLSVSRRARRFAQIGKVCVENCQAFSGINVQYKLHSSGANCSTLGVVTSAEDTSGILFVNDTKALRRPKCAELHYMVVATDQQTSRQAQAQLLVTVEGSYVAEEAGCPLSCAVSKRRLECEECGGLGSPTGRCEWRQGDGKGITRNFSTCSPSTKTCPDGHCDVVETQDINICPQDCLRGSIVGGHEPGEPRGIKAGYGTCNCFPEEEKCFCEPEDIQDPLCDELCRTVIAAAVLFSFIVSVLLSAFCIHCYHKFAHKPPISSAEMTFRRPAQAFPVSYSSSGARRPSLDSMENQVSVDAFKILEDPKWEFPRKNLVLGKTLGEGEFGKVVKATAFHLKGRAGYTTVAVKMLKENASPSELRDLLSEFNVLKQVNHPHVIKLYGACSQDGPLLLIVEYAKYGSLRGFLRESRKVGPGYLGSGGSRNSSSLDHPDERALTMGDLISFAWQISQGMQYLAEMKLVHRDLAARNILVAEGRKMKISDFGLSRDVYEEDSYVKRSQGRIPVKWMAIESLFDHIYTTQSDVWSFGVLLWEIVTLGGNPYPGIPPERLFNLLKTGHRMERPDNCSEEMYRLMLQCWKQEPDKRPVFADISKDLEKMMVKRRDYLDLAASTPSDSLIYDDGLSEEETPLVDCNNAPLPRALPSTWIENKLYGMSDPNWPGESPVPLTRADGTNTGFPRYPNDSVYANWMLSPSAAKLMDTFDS

Regarding `O=C(Nc1ccc(CN2CCN(c3nccc(Nc4cc(C5CC5)[nH]n4)n3)CC2)cc1)c1ccccc1C(F)(F)F` [Compound 2, N-(4-((4-(4-((5-cyclopropyl-1H-pyrazol-3-yl)amino)pyrimidin-2-yl)piperazin-1-yl)methyl)phenyl)-2-(trifluoromethyl)-benzamide], the half-inhibitory concentration (IC50) in [1] was determined as 3.2 µM; in [2], 0.73 µM; in data set [5], 0.009 µM; in data set [7] it was 190 nM; in data set [8], 0.48 µM. In addition, the inhibition at 0.1 µM in [3] and in [4] was > 50% throughout. This molecule came in with a bioavailability in data set [6] of 51%. Also, the AUC(0-t) in [6] (read-out: AUC (0-24 h)) amounted to 0.877 µg·h/mL. In [9], the “% protective effect vs. CFA induced hyperalgesia” value amounted to 100%.
